Laboratory results from patent US12653896B2, “Targeted dendrimer conjugates” (Starpharma Pty Ltd, priority 2019, dated 2026).

What was measured:
MDA-MB-453 cells = test: Cell association by flow cytometry (Cy5), MDA-MB-453; assay type: cell-based, human; conditions: for Mean Fluorescence Intensity (Cy5), MFI: MDA-MB-453, 1 hour on ice, triplicate wells; for binding to HER2-positive MDA-MB-453 cells: result in words
Experimental: The HER2-expressing human metastatic carcinoma cell line MDA-MB-453 (ATCC HTB-131) and the HER2-negative epithelial adenocarcinoma cell line MDA-MB-231 (ATCC HTB-26) were maintained in Dulbecco's Modified Eagle's Medium (DMEM) containing 10% FBS and penicillin-streptomycin (100 U/mL) at 37° C. under a 5% CO2 humidified atmosphere and subcultured prior to confluence using trypsin. Human adenocarcinoma ovary cell line SKOV-3 (ATCC® HTB-77) cells were maintained in RPMI media with the addition of 10% (v/v) FBS and penicillin-streptomycin (100 U/mL) at 37° C. in a 5% CO2 humidified atmosphere and subcultured prior to confluence.
For measurement of cell association by flow cytometry, cells in suspension were added at 1×10^5 cells per well to a 96 well assay plate. Following incubation with nanobody-dendrimer or unconjugated dendrimer for 1 hour on ice, cells were washed three times with 200 ul of DMEM containing 10% FBS to remove unbound dendrimer. Cells were then resuspended in chilled Fluorobrite media supplemented with 10% FBS and Cy5 fluorescence measured using 642 nm excitation and emission collected between 661-691 nm. To measure internalisation kinetics, nanobody-dendrimer was incubated with cells for 24, 4, 1, 0.5 and 0.1 hours at 37° C. before unbound nanobody-dendrimer was removed by washing and analysed by flow cytometry.

MDA-MB-231 cells [1] = test: In vitro association study (flow cytometry, Cy5), MDA-MB-231; assay type: cell-based, human; conditions: for cellular association value (DFO/Cy5 BHA dendrimers; quantity not named, table stands under 'Percent of cellular association'): MDA-MB-231, 0.5 h
Experimental: (§1) MDA-MB-231, MDA-MB-231/HER2 (HER2 knock in) (as described above), or SKOV-3 cells were seeded in a 24-well plate (1×10^5 cells per well) in 500 μL of appropriate growth media with the addition of 10% (v/v) fetal bovine serum (FBS) and incubated with compound 36 or 41 at 3.33 nM, […] atmosphere. After incubation, non-binding/non-associating particles were removed from adherent cells by gently washing with DPBS three times (300 μL/well). Cells were removed from plates by treatment with TrypLE™ Express Enzyme (1×), no phenol red (150 μL/well) for 5-10 min at room temperature. The plates were then placed on ice. Cellular binding and association of sample were then determined through flow cytometry by the acquisition of the signal from Cy5.

MDA-MB-231/HER2 cells = test: In vitro association study (flow cytometry, Cy5), MDA-MB-231/HER2; assay type: cell-based, human; conditions: for cellular association value (DFO/Cy5 BHA dendrimers; quantity not named, table stands under 'Percent of cellular association'): MDA-MB-231/HER2, 0.5 h
Experimental: as §1

ErbB2-ECD = biological target: T1, ErbB2-ECD (Homo sapiens, UniProt P04626); test: SPR binding to immobilized ErbB2-ECD; conditions: result in words
T1 construct: Direct Immobilization of ErbB2-ECD
Experimental: Using a ProteOn XPR36 instrument, ErbB2-ECD was immobilized at 25° C. onto a GLC sensor chip surface (Bio-Rad), with HBS-P+ running buffer (10 mM HEPES, pH 7.4, 150 mM NaCl, 0.05% Tween 20). Standard amine coupling methodology described in Bio-Rad's amine coupling kit was utilized for this immobilization. Lane 1 was activated with a 50:50 mixture of EDC (0.5 mM) and sulfo-NHS (0.125 mM). ErbB2 protein was diluted to […] in 10 mM sodium acetate, pH 5.0 and injected over the activated surface channel. Any remaining activated sites were blocked with 1 M ethanolamine-HCl, pH 8.5.
All SPR binding experiments were performed at 25° C. using HBS-EP+/BSA (10 mM HEPES, pH 7.4, 150 mM NaCl, 3 mM EDTA, 0.05% Tween20, 0.1 mg/ml BSA) as the instrument running buffer (RB). Following immobilization procedures, various concentrations of anti-ErbB2 affibodies and their MMAE-dendrimer conjugates were injected at 60 μl/min over immobilized ErbB2 proteins and their association monitored for 90 sec. Running buffer was subsequently injected over bound Ab-ErbB2 complexes and dissociation monitored for up to 60 min. […] All binding measurements were performed in triplicate.
Collected experimental data were processed using Scrubber-Pro software (www.biologic.com.au). […]

MDA-MB-231 cells [2] = test: In vitro association study of G5 cabazitaxel dendrimers, MDA-MB-231; assay type: cell-based, human; conditions: MDA-MB-231, 3.33 nM
Experimental: (§2) MDA-MB-231, MDA-MB-231/HER2 (HER2 knock in), or SKOV-3 cells were seeded in a 24-well plate (1×10^5 cells per well) in 500 μL of appropriate growth media with the addition of 10% (v/v) fetal bovine serum (FBS) and 1% (v/v) penicillin-streptomycin, and incubated with compound 70 (G5, PEG1000, CTX) or 78 (2D3, G5, PEG1000, CTX) at 3.33 nM, with incubation time varied from 1 to 24 h at 37° C. in a 5% CO2 humidified atmosphere. After incubation, non-binding/non-associating particles were removed from adherent cells by gently washing with DPBS three times (300 μL/well). Cells were removed from plates by treatment with TrypLE™ Express Enzyme (1×), no phenol red (150 μL/well) for 5-10 min at room temperature. The plates were then placed on ice. Cellular binding and association of sample were then determined through flow cytometry by the acquisition of the signal from Cy5.

[3] = tested on: MDA-MB-231/HER2 (HER2 knock in) cells; test: In vitro association study of G5 cabazitaxel dendrimers, MDA-MB-231/HER2; assay type: cell-based, human; conditions: MDA-MB-231/HER2, 3.33 nM
Experimental: as §2

SKOV-3 cells = test: In vitro association study of G5 cabazitaxel dendrimers, SKOV-3; assay type: cell-based, human; conditions: SKOV-3, 3.33 nM
Experimental: as §2

| Substance | Mean Fluorescence Intensity (Cy5), MFI (MDA-MB-453 cells) | binding to HER2-positive MDA-MB-453 cells (MDA-MB-453 cells) | Mean fluorescence intensity (MDA-MB-231 cells [1]; MDA-MB-231, 1 h) | Mean fluorescence intensity (MDA-MB-231 cells [1]; MDA-MB-231, 2 h) | Mean fluorescence intensity (MDA-MB-231 cells [1]; MDA-MB-231, 4 h) | Mean fluorescence intensity (MDA-MB-231 cells [1]; MDA-MB-231, 24 h) | Mean fluorescence intensity (MDA-MB-231/HER2 cells; MDA-MB-231/HER2, 1 h) | Mean fluorescence intensity (MDA-MB-231/HER2 cells; MDA-MB-231/HER2, 2 h) | Mean fluorescence intensity (MDA-MB-231/HER2 cells; MDA-MB-231/HER2, 4 h) | Mean fluorescence intensity (MDA-MB-231/HER2 cells; MDA-MB-231/HER2, 24 h) | cellular association value (DFO/Cy5 BHA dendrimers; quantity not named, table stands under 'Percent of cellular association') (MDA-MB-231 cells [1]) | cellular association value (DFO/Cy5 BHA dendrimers; quantity not named, table stands under 'Percent of cellular association') (MDA-MB-231/HER2 cells) | further results |
| --- | --- | --- | --- | --- | --- | --- | --- | --- | --- | --- | --- | --- | --- |
| (MeTzPh)PEG4CO-NHPEG24CO—[N(PN)2][Lys]16[((α-NHCy5)1(α-NHAc)15)(ε-NH-COPEG1100)16] [Compound 38] | 6.827 ± 0.07 | did not bind | 239.3 ± 1.2 | 230.7 ± 2.3 | 217.3 ± 3.2 | 195.7 ± 0.6 | 269.0 ± 19.8 | 225.0 ± 5.7 | 198.0 ± 2.8 | 175.5 ± 0.7 |  |  | Percent of cellular association (MDA-MB-231/HER2 cells; MDA-MB-231/HER2, 1 h): 0.90 ± 0.35%; Percent of cellular association (MDA-MB-231/HER2 cells; MDA-MB-231/HER2, 2 h): 0.50 ± 0.10%; Percent of cellular association (MDA-MB-231/HER2 cells; MDA-MB-231/HER2, 4 h): 0.50 ± 0.35%; Percent of cellular association (MDA-MB-231/HER2 cells; MDA-MB-231/HER2, 24 h): 0.37 ± 0.15% |
| BHALys[Lys]2[Lys]4[Lys]8[Lys]16[Lys]32[((α-NH-COPEG24NH-COPEG4(PhTzMe)/TCO-PEG3NH-COPEG24NH-Glu-DBCO)1(α-Lys(α-NHCy5)(ε-NHDFO))1(α-NH2)30)(ε-NH-COPEG1000)32] [Compound 85] |  |  |  |  |  |  |  |  |  |  | 33.23 ± 2.2 | 25.6 ± 0.43 |  |
| Azido-PEG24CO—[N(PN)2[Lys]8[(α-NH-Glu-Val-Cit-PAB-MMAE)8(ε-NH-COPEG2000)8] [Compound 21] |  |  |  |  |  |  |  |  |  |  |  |  | binding to ErbB2 (ErbB2-ECD): No binding |
| BHALys[Lys]2[Lys]4[((α-NH-COPEG24NH-COPEG4(PhTzMe/TCO-PEG3NH-COPEG24NH-Glu-DBCO))1(α-Lys(α-NHCy5)(ε-NHDFO))1(α-NH2)2)(ε-NH-COPEG1000)4] [Compound 82] |  |  |  |  |  |  |  |  |  |  | 23.3 ± 3.98 | 14.83 ± 1.60 |  |
| BHA[Lys]32[((α-NH-COPEG24NH-COPEG4(PhMeTz))1-4(α-NHCy5)1(α-NH-COPEG9-Val-Ala-PAB-P-Trigger-NMeCO-CTX)22) (α-NH2)5-8(ε-NH-COPEG1100)32] [Compound 70] |  |  |  |  |  |  |  |  |  |  |  |  | Mean fluorescence intensity (MFI) (MDA-MB-231 cells [2]; 1 h): 1.00 ± 0.14; Mean fluorescence intensity (MFI) (MDA-MB-231 cells [2]; 3 h): 4.10 ± 0.71; Mean fluorescence intensity (MFI) (MDA-MB-231 cells [2]; 6 h): 5.65 ± 0.64; Mean fluorescence intensity (MFI) (MDA-MB-231 cells [2]; 24 h): 13.4 ± 0.07; binding over 24 h (MDA-MB-231 cells [2]; in words): minimal binding; Mean fluorescence intensity (MFI) ([3]; 1 h): 0.77 ± 0.06; Mean fluorescence intensity (MFI) ([3]; 3 h): 7.72 ± 4.17; Mean fluorescence intensity (MFI) ([3]; 6 h): 5.82 ± 0.07; Mean fluorescence intensity (MFI) ([3]; 24 h): 12.4±0.64; binding over 24 h ([3]; in words): minimal binding; Mean fluorescence intensity (MFI) (SKOV-3 cells; 1 h): 1.00 ± 0.29; Mean fluorescence intensity (MFI) (SKOV-3 cells; 3 h): 3.46 ± 0.69; Mean fluorescence intensity (MFI) (SKOV-3 cells; 6 h): 3.90 ± 0.10; Mean fluorescence intensity (MFI) (SKOV-3 cells; 24 h): 11.4±0.42; binding over 24 h (SKOV-3 cells; in words): minimal binding |
| BHALys[Lys]2[Lys]4[Lys]8[((α-NH-COPEG24NH-COPEG4(PhTzMe)/TCO-PEG3NH-COPEG24NH-Glu-DBCO)1(α-Lys(α-NHCy5)(ε-NHDFO))1(α-NH2)6)(ε-NH-COPEG1000)8] [Compound 83] |  |  |  |  |  |  |  |  |  |  | 42.8 ± 2.78 | 43.23 ± 3.48 |  |
| BHALys[Lys]2[Lys]4[Lys]8[Lys]16[((α-NH-COPEG24NH-COPEG4(PhTzMe)/TCO-PEG3NH-COPEG24NH-Glu-DBCO)1(α-Lys(α-NHCy5)(ε-NHDFO))1(α-NH2)14)(ε-NH-COPEG1000)16] [Compound 84] |  |  |  |  |  |  |  |  |  |  | 20.23 ± 0.63 | 16.7 ± 2.48 |  |
| (MeTzPh)PEG4CO-NHPEG24CO—[N(PN)2][Lys]32[((α-NHCy5)1(α-NHAc)31)(ε-NH-COPEG1100)32] [Compound 39] | 4.349 ± 0.08 | did not bind | 252.0 ± 6.0 | 249.0 ± 8.7 | 247.3 ± 7.2 | 196.3 ± 3.1 | 257.5 ± 12.0 | 249.0 ± 15.6 | 207.0 ± 2.8 | 207.5 ± 40.3 |  |  | Percent of cellular association (MDA-MB-231 cells [1]; MDA-MB-231, 1 h): 0.97 ± 0.12%; Percent of cellular association (MDA-MB-231/HER2 cells; MDA-MB-231/HER2, 4 h): 0.47 ± 0.21% |
| (MeTzPh)PEG4CO-NHPEG24CO—[N(PN)2][Lys]8[((α-NHCy5)1(α-NHAc)7)(ε-NH-COPEG1100)8] [Compound 37] | 3.097 ± 0.01 | did not bind | 258.3 ± 19.6 | 256.7 ± 24.8 | 221.3 ± 3.5 | 215.3 ± 4.9 | 293.0 ± 8.5 | 268.0 ± 11.3 | 241.5 ± 17.7 | 206.0 ± 2.8 |  |  | Percent of cellular association (MDA-MB-231 cells [1]; MDA-MB-231, 1 h): 1.10 ± 0.35%; Percent of cellular association (MDA-MB-231 cells [1]; MDA-MB-231, 2 h): 1.23 ± 0.47%; Percent of cellular association (MDA-MB-231/HER2 cells; MDA-MB-231/HER2, 1 h): 2.47 ± 0.81% |
